Laboratory results taken from US8563254B2, “Biomarkers of tumor pharmacodynamic response” (Novartis AG, priority 2009, dated 2013).

Legend:
GTL-16 cells [1] = test: IL-8 ELISA of GTL-16 culture supernatants; assay type: cell-based, human
Method: A malignant melanoma cell line A375 (American Type Culture Collection, Manassas, Va., USA) and gastric cancer cell line, GTL-16 (Prof Silvia Giordano, Institute for Cancer Research and Treatment, Turin, Italy) were cultured in RPMI 1640 supplemented with 10% FBS and 1% penicillin-streptomycin at 37° C. in 5% CO2 (GIBCO reagents, Invitrogen Corporation, Carlsbad, Calif., USA). Cell numbers were determined by ViCell™ XR Cell Viability Analyzer 2.03 (Beckman Coulter, Inc., Fullerton, Calif., USA). Cells were seeded in poly-D-lysine coated plates (BIOCOAT Cell Environments, Becton Dickinson Biosciences, San Jose, Calif., USA).
Human IL-8 levels in cell culture supernatants from GTL-16 and A375 cells were measured by a sandwich enzyme-linked immunosorbent assay (R&D Systems, Inc., Minneapolis, Minn., USA). Cell culture supernatants were collected from DMSO and NVP-AUY922 treated cells 16, 24, 48 and 72 hr post-treatment and stored at −20° C.
To better characterize the relationship between Hsp90 inhibitor treatment and effects on IL-8 production, GTL-16 and A375 cells were washed and treated for 24 hr with fresh medium containing various concentrations of NVP-AUY922. For this length of treatment time, maximal inhibition of IL-8 accumulation appears to be reached at 0.3 μM as measured by enzyme-linked immunosorbent assay; this equates to 80% and 60% reductions in GTL-16 and A375 cultures, respectively (FIGS. 2A, B).

GTL-16 cells [2] = test: Quantitative RT-PCR of IL-8 mRNA, GTL-16; assay type: cell-based, human; conditions: GTL-16, 0.3 μM, 16 hr, treated versus untreated
Method: Total cellular RNA was extracted from the GTL-16 and A375 cell lines using RNeasy mini kit (Qiagen, Inc., Valencia, Calif., USA). Total RNA quantitation was carried out using a RiboGreen assay (Invitrogen Corporation, Carlsbad, Calif., USA). 1 μg of total RNA was reverse transcribed using AMV reverse transcriptase (Reverse Transcription Kit, Promega U.S., Madison, Wis., USA). A 20 μl reaction cocktail was prepared as follows; 1 μg total RNA in 10 μl of RNase, DNase-free H2O, 4 μl of 25 mM MgCl2, 2 μl of 10× reverse transcriptase buffer, 2 μl of 10 mM dNTP's, 1 μl of 500 μg ml^−1 random hexamers, 1.5 μl of 10 μl ml^−1, and 40 U μl^−1 0.5 μl of recombinant RNase Inhibitor. Real time PCR was performed using a 7900HT fast real-time PCR system (Applied Biosystems, Foster City, Calif., USA) using the Power SYBR Green PCR master mix (Applied Biosystems). The primers for IL-8 and GAPDH were: IL-8 sense: 5′-[…]-3′ (SEQ ID NO:3) and IL-8 antisense:
5′-[…]-3′ (SEQ ID NO:4); and GAPDH sense:
5′-[…]-3′ (SEQ ID NO:5), and GAPDH antisense;
5′-[…]-3′. (SEQ ID NO:6) The amplification process involved an initial 5 min denaturing step at 95° C. This was followed by annealing reactions for both IL-8 and GAPDH, of 45 s at 95° C. with 230 s at 68° C. for 34 cycles and 1 min at 95° C. with 1 min at 60° C. and 1 min 72° C. for 30 cycles, respectively. The final extension was 10 min at 72° C. […]

GTL-16 cells [3] = test: Cell viability by CellTiter-Glo, GTL-16; assay type: cell-based, human; conditions: GTL-16, 0.3 μM, 72 hr treatment time
Method: Cell Viability was measured by CellTiter-Glo assay (Promega U.S., Madison, Wis., USA). GTL-16 and A375 cells were grown in 6-well poly-D-lysine coated plates (BD Biosciences). Cells were treated with NVP-AUY922. Cell viability was measured 16, 24, 48 and 72 hr post-treatment with Hsp90 inhibitor. Briefly supernatants were removed and cells were washed with 3 ml of PBS, pH 7.4. 1 ml of a two component CellTiter-Glo reagent was added to each well and the plates were shaken vigorously for 2 min, followed by 10 min incubation at room temperature in the dark. Luminescent signal intensity was recorded with an integration time set between 0.25 and 1 s/well.

[4] = tested on: GTL-16 tumor-bearing mice; test: Serum IL-8 / mouse KC in GTL-16 mouse xenograft model; assay type: in vivo
Method: The in vivo study was carried out in strict accordance with Swiss law for animal protection and was approved by the Swiss Cantonal Veterinary Office of Basel-Stadt. GTL-16 (4×10^6) and A375 cells (5×10^6) were inoculated subcutaneously in the right flank in 200 μl Hanks' balanced salt solution (HBSS) or PBS, respectively. Invasive procedures were performed under Forene anesthesia. All experiments were performed in female Harlan HsdNpa: Athymic Nude-nu mice (Laboratory Animal Services, Novartis Pharma AG, Basel). The animals were kept under optimized hygienic conditions with 12 hr dark, 12 hr light conditions. The animals were fed food and water ad libitum. A single 75 mg/kg and 50 mg/kg dose of Hsp90 inhibitor, NVP-AUY922 was administered to the GTL-16 and A375 tumor-bearing mice, when tumors had reached a mean volume of 200 mm^3-500 mm^3 in size. Mice in the control group were injected with the vehicle (D5W). Serum was isolated and tumors dissected over the time course 0-168 hr. Tumors were cut in two halves. One half was paraffin embedded and the other snap frozen, and stored at −80° C.
Human IL-8 levels in cell culture supernatants treated with NVP-AUY922 were initially assessed as part of a multiplexed bead-based cytokine panel (hu 27-plex panel I, Bio-rad Laboratories, Hercules, Calif., USA) with a BioPlex Suspension Array System (Bio-rad). Human IL-8 and mouse KC levels in serum derived from GTL-16 and A375 tumor-bearing mice treated with NVP-AUY922 were measured by single-plex cytokine bead-based assay (Milliplex, Millipore, Billerica, Mass., USA). The BioPlex system uses a liquid suspension array of beads. The beads align in a single file through a flow cell to the detector, where a red classification laser at a wavelength of 635 nm and a green reporter laser at a wavelength of 532 nm are used to identify each bead's spectral address and associated reporter signal, respectively.

SMILES: CCNC(=O)c1noc(-c2cc(C(C)C)c(O)cc2O)c1-c1ccc(CN2CCOCC2)cc1 [NVP-AUY922, 5-(2,4-Dihydroxy-5-isopropyl-phenyl)-4-(4-morhpolin-4-ylmethyl-phenyl)-isoxazole-3-carboxylic acid ethylamide]
- time within which IL-8 production dramatically declines (GTL-16 cells [1]; GTL-16, 0.3 μM): ≤ 16 h
- concentration at which maximal inhibition of IL-8 accumulation is reached (GTL-16 cells [1]; GTL-16, 24 hr treatment): 0.3 µM
- inhibition at 0.3 µM (GTL-16 cells [1]; Homo sapiens, GTL-16, 0.3 μM, 24 hr, ELISA, read-out: reduction of IL-8 accumulation (maximal inhibition)): 80%
- decrease in IL-8 mRNA expression (GTL-16 cells [2]): 85%
- cell viability over time (GTL-16 cells [3]): steadily declines
- murine IL-8 levels, measured indirectly as mu KC ([4]; serum): unchanged
- earliest time of significant decrease in serum IL-8 ([4]; single 75 mg/kg dose): 6 h
- time by which serum IL-8 recovers to pre-treatment levels ([4]; single 75 mg/kg dose): ≤ 72 h
- maximum decline of serum IL-8 levels ([4]; single 75 mg/kg dose, 12 hr post-treatment): approximately 70%
